Laboratory results published in ChEMBL document CHEMBL1139567, “Synthesis and biological evaluation of sulfonamidooxazoles and beta-keto sulfones: selective inhibitors of 11beta-hydroxysteroid dehydrogenase type I” (Bioorg Med Chem Lett, 2005).

Assays:
[1] = biological target: 11-beta-hydroxysteroid dehydrogenase 1 (Homo sapiens, UniProt P28845); assay: Inhibitory concentration against human 11-beta-hydroxysteroid dehydrogenase 1
[2] = biological target: T1, 11-beta-hydroxysteroid dehydrogenase type 2 (Homo sapiens, UniProt P80365); assay: Inhibitory concentration against human 11-beta-hydroxysteroid dehydrogenase 2
T1 sequence (P80365 whole entry): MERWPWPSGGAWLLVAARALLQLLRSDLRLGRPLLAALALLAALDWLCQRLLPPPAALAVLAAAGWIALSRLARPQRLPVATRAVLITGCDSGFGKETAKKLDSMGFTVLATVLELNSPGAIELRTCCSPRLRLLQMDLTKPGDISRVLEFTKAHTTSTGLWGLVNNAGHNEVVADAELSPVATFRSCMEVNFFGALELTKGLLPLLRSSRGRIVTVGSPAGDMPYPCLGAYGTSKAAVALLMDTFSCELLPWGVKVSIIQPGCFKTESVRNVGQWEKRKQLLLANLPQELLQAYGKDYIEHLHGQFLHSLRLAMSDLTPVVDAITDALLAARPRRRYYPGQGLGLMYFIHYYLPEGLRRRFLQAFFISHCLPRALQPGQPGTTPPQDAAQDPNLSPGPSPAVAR

Chain of 11-beta-hydroxysteroid dehydrogenase 1 (P28845 whole entry): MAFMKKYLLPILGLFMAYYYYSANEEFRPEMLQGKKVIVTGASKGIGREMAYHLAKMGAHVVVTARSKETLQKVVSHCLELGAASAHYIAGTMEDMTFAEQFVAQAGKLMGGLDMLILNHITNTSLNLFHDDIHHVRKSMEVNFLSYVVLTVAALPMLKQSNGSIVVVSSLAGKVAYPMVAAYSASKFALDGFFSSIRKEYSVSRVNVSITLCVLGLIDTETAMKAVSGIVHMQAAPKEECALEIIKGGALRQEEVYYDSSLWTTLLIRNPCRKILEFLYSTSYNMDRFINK

Compound	IC50 [1] [µM]	IC50 [2] [µM]
COC(=O)Cc1c(Cl)cccc1S(=O)(=O)Nc1nc(C)co1	> 100	
Cc1coc(NS(=O)(=O)c2cccc(Cl)c2C)n1	58.7	
CC(=O)N(C)c1ccc(S(=O)(=O)Nc2nc(C)c(C)o2)cc1	100	> 200
O=C(CS(=O)(=O)c1ccccc1)c1ccc(C(F)(F)F)cc1	0.19	> 200
O=S(=O)(Nc1nc(-c2ccccc2)co1)c1ccccc1	23	> 200
Cc1coc(NS(=O)(=O)c2cccc(Cl)c2CC(=O)O)n1	> 100	
Cc1c(Cl)cccc1S(=O)(=O)Nc1nc(-c2ccc(C#N)cc2)co1	48	> 200

Next, values leading:

IC50 [1] [µM]	IC50 [2] [µM]	Compound
17.3	> 200	Cc1c(Cl)cccc1S(=O)(=O)Nc1nc(-c2ccccc2)co1
9	> 200	O=S(=O)(Nc1nc(-c2ccc(C(F)(F)F)cc2)co1)c1ccccc1
2.3	> 200	O=S(=O)(Nc1nc(-c2ccc(-c3ccccc3)cc2)co1)c1ccccc1
1.5	> 200	CCN(CC)C(=O)Cc1csc(NS(=O)(=O)c2cccc(Cl)c2C)n1
